Measured values as given in patent US11981666B2, “GLP-1 receptor agonist and composition and use thereof” (HANGZHOU ZHONGMEIHUADONG PHARMACEUTICAL CO., LTD., priority 2021, dated 2024).
Like-named read-outs stand apart in the source and are kept apart here.

Experiments:
[1] = Metabolic stability in (human) liver microsomes; type: in vitro ADME; conditions: pH 7.4, test concentration 1 μM
Description: 3×NADPH stock solution (6 mM, 5 mg/mL) was prepared by dissolving NADPH in the buffer solution; 4. 30 μL of 1.5 μM additive solution containing 0.75 mg/mL microsomal solution was distributed to the plates designated for different time points (0, 5, 15, 30, 45 minutes); 5. at 0 min, 150 μL of ACN containing IS was added to the wells of the plate, followed by addition of 15 μL of NADPH stock solution (6 mM, step 3); 6. all other plates were pre-incubated at 37° C. for 5 minutes; 7. adding 15 μL of NADPH stock solution to the plate to start the reaction and timing; 8. 150 μL of ACN containing IS was added to the wells of the corresponding plates to stop the reaction at 5 min, 15 min, 30 min and 45 min, respectively; 9. after quenching, the plates were shaken on a shaker for 10 minutes (600 rpm/min) and then centrifuged at 6000 rpm for 15 minutes; 10. 80 μL of supernatant was transferred from each well to a 96-well sample plate containing 140 μL water for LC/MS analysis.
Detection method: LC-MS/MS-11 (8050), internal standard: tolbutamide; MS conditions: positive ion ESI for testosterone and test compound, and negative ion ESI for tolbutamide; Mobile phases: mobile phase A is 0.1% FA in water, and mobile phase B is 0.1% FA in ACN; Column and specification: ACQUITY UPLC HSS T3 1.8 um 2.1*50 mm.

[2] = target: T1, Human GLP-1R (Homo sapiens, UniProt P43220); assay: GLP-1R agonistic activity assay (HTRF cAMP, 293A GFP-GLP-1R cells); type: cell-based; conditions: cAMP level, geometric mean
T1 construct: expressed in transfected cells
Excerpt: The method was a competitive immunoassay.

[3] = test system: ICR mice; assay: Toxicological experiment in mice, 14-day repeated oral gavage (toxicity study); type: in vivo
Description: (§1) Experimental method: 212 ICR mice (SPF grade), half male and half female. Animals in groups 1-5 were used for toxicity study, with 10 male and 10 female animals in each group; and animals in groups 6-9 were used for toxicokinetic study, with 14 male and 14 female animals in each group (2 of them were spare animals). […] Animals in Groups 1-9 were administered orally once a day for 14 consecutive days.

[4] = target: T2, hERG potassium channels (Homo sapiens, UniProt Q12809); assay: Test for inhibition of hERG potassium channels (whole-cell patch clamp, HEK-293-hERG cells); type: cell-based
T2 construct: expressed in transfected cells; host or cells: HEK-293-hERG cells
Excerpt: Positive control: Amitriptyline hydrochloride or Terfenadine

[5] = Toxicological experiment in mice, 14-day repeated oral gavage (toxicokinetic study); type: in vivo, mouse; conditions: ICR, mouse, po, 200 mg/kg, Day 14; for AUC(0-t): plasma, read-out: AUC(0-t), the systemic exposure (first value listed)
Description: as §1

[6] = test system: ICR mice; assay: as above; type: in vivo, mouse; conditions: toxicokinetic study, male animals, 200 mg/kg oral once a day for 14 days
Description: as §1

T1 sequence (P43220 24-463): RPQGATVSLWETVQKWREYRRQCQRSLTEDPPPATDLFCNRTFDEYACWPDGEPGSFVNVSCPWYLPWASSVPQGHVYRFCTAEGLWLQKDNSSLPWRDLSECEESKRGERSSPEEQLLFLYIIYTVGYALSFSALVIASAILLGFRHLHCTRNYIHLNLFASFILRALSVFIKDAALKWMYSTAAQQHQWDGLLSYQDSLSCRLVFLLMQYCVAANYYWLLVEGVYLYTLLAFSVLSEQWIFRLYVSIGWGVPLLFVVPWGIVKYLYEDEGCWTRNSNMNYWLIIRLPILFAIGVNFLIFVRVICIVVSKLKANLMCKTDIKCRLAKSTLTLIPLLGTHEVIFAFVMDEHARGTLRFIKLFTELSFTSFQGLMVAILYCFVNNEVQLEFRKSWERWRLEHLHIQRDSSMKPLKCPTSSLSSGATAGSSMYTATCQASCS
T2 sequence (Q12809 whole entry): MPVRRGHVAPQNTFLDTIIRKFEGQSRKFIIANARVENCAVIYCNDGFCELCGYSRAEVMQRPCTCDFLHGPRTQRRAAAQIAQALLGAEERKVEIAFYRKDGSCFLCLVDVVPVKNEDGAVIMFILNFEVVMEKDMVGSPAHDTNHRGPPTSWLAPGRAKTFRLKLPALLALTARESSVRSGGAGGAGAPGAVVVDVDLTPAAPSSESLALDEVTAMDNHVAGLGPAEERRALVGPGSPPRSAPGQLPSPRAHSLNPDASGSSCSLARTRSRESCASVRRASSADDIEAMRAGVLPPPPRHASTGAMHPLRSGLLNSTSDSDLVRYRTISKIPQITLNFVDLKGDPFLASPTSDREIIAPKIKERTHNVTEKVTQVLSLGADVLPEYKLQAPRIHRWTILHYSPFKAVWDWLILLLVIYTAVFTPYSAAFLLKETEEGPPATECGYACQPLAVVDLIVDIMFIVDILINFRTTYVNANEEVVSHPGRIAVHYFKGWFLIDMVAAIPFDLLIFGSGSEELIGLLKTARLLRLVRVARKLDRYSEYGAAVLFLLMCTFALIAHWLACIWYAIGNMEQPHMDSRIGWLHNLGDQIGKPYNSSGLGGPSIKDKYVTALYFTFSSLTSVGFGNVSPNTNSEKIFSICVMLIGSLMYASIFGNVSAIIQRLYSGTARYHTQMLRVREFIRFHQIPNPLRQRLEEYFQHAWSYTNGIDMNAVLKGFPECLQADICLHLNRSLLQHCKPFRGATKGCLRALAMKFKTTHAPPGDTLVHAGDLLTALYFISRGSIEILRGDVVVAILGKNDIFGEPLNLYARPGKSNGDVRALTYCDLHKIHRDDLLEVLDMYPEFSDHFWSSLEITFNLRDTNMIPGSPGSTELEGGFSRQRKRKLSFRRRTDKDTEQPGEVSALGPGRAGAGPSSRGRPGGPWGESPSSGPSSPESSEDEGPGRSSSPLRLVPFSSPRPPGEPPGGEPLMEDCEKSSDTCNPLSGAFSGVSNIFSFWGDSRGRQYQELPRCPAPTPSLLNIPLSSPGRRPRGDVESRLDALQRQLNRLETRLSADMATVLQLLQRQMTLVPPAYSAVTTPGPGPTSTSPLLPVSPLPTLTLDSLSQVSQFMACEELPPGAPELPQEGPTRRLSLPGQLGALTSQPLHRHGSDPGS

**Q.** Which half-life at 1 μM [1] does the source give for `O=C(O)c1ccc2nc(Cc3ccc(-c4cccc(OCc5ccc(C6COC6)cc5F)n4)cc3F)n(C[C@@H]3CCO3)c2c1` [Compound 11, (S)-2-(2-fluoro-4-(6-((2-fluoro-4-(oxetan-3-yl)benzyl)oxy)pyridin-2-yl)benzyl)-1-(oxetan-2-ylmethyl)-1H-benzo[d]imidazole-6-carboxylic acid] here?
**A.** 1.05 h

**Q.** What about the EC50 [2] of the same compound?
**A.** 0.011 nM

**Q.** Which half-life at 1 μM [1] does the source give for `COc1cc(C2COC2)ccc1COc1cccc(C2CCN(Cc3nc4ccc(C(=O)O)cc4n3C[C@@H]3CCO3)CC2)n1` [Compound 3, (S)-2-((4-(6-((2-methoxy-4-(oxetan-3-yl)benzyl)oxy)pyridin-2-yl)piperidin-1-yl)methyl)-1-(oxetan-2-ylmethyl)-1H-benzo[d]imidazole-6-carboxylic acid] here?
**A.** 2.56 h

**Q.** And the EC50 [2]?
**A.** 0.03 nM

**Q.** Which EC50 [2] does the source give for `O=C(O)c1ccc2nc(CN3CCC(c4cccc(OCc5ccc(C6COC6)cc5F)n4)CC3)n(CC3(CF)CC3)c2c1` [Compound 5, 2-((4-(6-((2-fluoro-4-(oxetan-3-yl)benzyl)oxy)pyridin-2-yl)piperidin-1-yl)methyl)-1-((1-(fluoromethyl)cyclopropyl)methyl)-1H-benzo[d]imidazole-6-carboxylic acid] here?
**A.** 0.003 nM

**Q.** With `O=C(O)c1ccc2nc(CN3CCC(c4cccc(OCc5ccc(C6(F)COC6)cc5F)n4)CC3)n(C[C@@H]3CCO3)c2c1` [Compound 15, (S)-2-((4-(6-((2-fluoro-4-(3-fluoroxetan-3-yl)benzyl)oxy)pyridin-2-yl)piperidin-1-yl)methyl)-1-(oxetan-2-ylmethyl)-1H-benzo[d]imidazole-6-carboxylic acid] as the compound, how does the EC50 [2] read?
**A.** 0.08 nM

**Q.** For `O=C(O)c1ccc2nc(CN3CCC4=C(COCc5ccc(OCc6ccc(C7COC7)cc6F)nc54)C3)n(C[C@@H]3CCO3)c2c1` [Compound 7, (S)-2-((2-((2-fluoro-4-(oxetan-3-yl)benzyl)oxy)-5,8,10,11-tetrahydro-oxepino[4,3-b: 6,5-c′]dipyridin-9(7H)-yl)methyl)-1-(oxetan-2-ylmethyl)-1H-benzo[d]imidazole-6-carboxylic acid], which half-life at 1 μM [1] is on record?
**A.** 1.74 h

**Q.** What about the EC50 [2] of the same compound?
**A.** 0.1 nM

**Q.** What does the source list for `O=C(O)c1ccc2nc(CN3CCC(c4cccc(OCc5ccc(C6COC6)cn5)n4)CC3)n(C[C@@H]3CCO3)c2c1` [Compound 6, (S)-1-(oxetan-2-ylmethyl)-2-((4-(6-((5-(oxetan-3-yl)pyridin-2-yl)methoxy)pyridin-2-yl)piperidin-1-yl)methyl)-1H-benzo[d]imidazole-6-carboxylic acid]?
**A.** half-life at 1 μM [1]: 0.717 h; EC50 [2]: 0.7 nM

**Q.** Which results are given for `O=C(O)c1ccc2nc(CN3CCC(c4cccc(OCc5ccc(C6COC6)cc5Cl)n4)CC3)n(C[C@@H]3CCO3)c2c1` [Compound 2, (S)-2-((4-(6-((2-chloro-4-(oxetan-3-yl)benzyl)oxy)pyridin-2-yl)piperidin-1-yl)methyl)-1-(oxetan-2-ylmethyl)-1H-benzo[d]imidazole-6-carboxylic acid]?
**A.** half-life at 1 μM [1]: 2.06 h; EC50 [2]: 0.07 nM

**Q.** With `N#Cc1ccc(COc2cccc(C3CCN(Cc4nc5ccc(C(=O)O)cc5n4C[C@@H]4CCO4)CC3)n2)c(F)c1` [Compound 20, 2-[(4-{6-[(4-cyano-2-fluorophenyl)methoxy]pyridin-2-yl}piperidin-1-yl)methyl]-1-{[(2S)-oxetan-2-yl]methyl}-1H-1,3-benzodiazole-6-carboxylic acid, reference compound] as the compound, how does the half-life at 1 μM [1] read?
**A.** 1.87 h

**Q.** And the “non-toxic response dose level” value ([3]; ICR mice, gavage once a day for 14 consecutive days)?
**A.** less than 200 mg/kg

**Q.** And the “biochemical analysis of serum” value ([3]; compared to vehicle control)?
**A.** increase in TBIL

**Q.** What about the clinical observation ([3]; toxicity and toxicokinetic studies, 200 mg/kg) of the same compound?
**A.** decreased activity, piloerection, cold skin when touched, arched-back posture and prone position were frequently observed

**Q.** And the animals found dead ([3]; toxicity study, male animals, 200 mg/kg oral once a day for 14 days)?
**A.** 2/10

**Q.** What about the IC50 [4] of the same compound?
**A.** 5800 nM

**Q.** What about the AUC(0-inf) ([5]; plasma of female animals) of the same compound?
**A.** 331 µg·h/mL

**Q.** And the Cmax ([5]; plasma of female animals)?
**A.** 104 µg/mL

**Q.** And the AUC(0-inf) ([5]; plasma of male animals)?
**A.** 254 µg·h/mL

**Q.** And the Cmax ([5]; plasma of male animals)?
**A.** 91 µg/mL

**Q.** And the AUC(0-t) ([5]; female, plasma of female animals)?
**A.** 338 µg·h/mL

**Q.** And the AUC(0-t) ([5]; male, plasma of male animals)?
**A.** 387 µg·h/mL

**Q.** And the animals found dead [6]?
**A.** 4/14

**Q.** With `O=C(O)c1ccc2nc(CN3CCC4c5nc(OCc6ccc(C7COC7)cc6F)ccc5COCC4C3)n(C[C@@H]3CCO3)c2c1` (single isomer, unassigned) [Compound 12-B] as the compound, how does the half-life at 1 μM [1] read?
**A.** 1.2 h

**Q.** What about the EC50 [2] of the same compound?
**A.** 0.1 nM

**Q.** With `O=C(O)c1ccc2nc(CN3CCC(c4cccc(OCc5ccc(C6COC6)cc5C(F)F)n4)CC3)n(C[C@@H]3CCO3)c2c1` [Compound 18, (S)-2-((4-(6-((2-(difluoromethyl)-4-(oxetan-3-yl)benzyl)oxy)pyridin-2-yl)piperidin-1-yl)methyl)-1-(oxetan-2-ylmethyl)-1H-benzo[d]imidazole-6-carboxylic acid] as the compound, how does the EC50 [2] read?
**A.** 0.85 nM

**Q.** With `N#CCC1(Cn2c(CN3CCC(c4cccc(OCc5ccc(C6COC6)cc5F)n4)CC3)nc3ccc(C(=O)O)cc32)CC1` [Compound 4, 1-((1-(cyanomethyl)cyclopropyl)methyl)-2-((4-(6-((2-fluoro-4-(oxetan-3-yl)benzyl)oxy)pyridin-2-yl)piperidin-1-yl)methyl)-1H-benzo[d]imidazole-6-carboxylic acid] as the compound, how does the EC50 [2] read?
**A.** 0.08 nM

**Q.** Which EC50 [2] does the source give for `N#CCC1(Cn2c(Cc3ccc(-c4cccc(OCc5ccc(C6COC6)cc5F)n4)cc3F)nc3ccc(C(=O)O)cc32)CC1` [Compound 8, 1-((1-(cyanomethyl)cyclopropyl)methyl)-2-(2-fluoro-4-(6-((2-fluoro-4-(oxetan-3-yl)benzyl)oxy)pyridin-2-yl)benzyl)-1H-benzo[d]imidazole-6-carboxylic acid] here?
**A.** 0.02 nM

**Q.** With `O=C(O)c1ccc2nc(CN3CCC4c5nc(OCc6ccc(C7COC7)cc6Cl)ccc5COCC4C3)n(CC3CCO3)c2c1` (single isomer, unassigned) [Compound 17-B] as the compound, how does the EC50 [2] read?
**A.** 0.14 nM

**Q.** With `O=C(O)c1ccc2nc(CN3CCC(c4cccc(OCc5ccc(C6COC6)cc5F)n4)CC3)n(CC3(F)CCC3)c2c1` [Compound 9, 2-((4-(6-((2-fluoro-4-(oxetan-3-yl)benzyl)oxy)pyridin-2-yl)piperidin-1-yl)methyl)-1-((1-fluorocyclobutyl)methyl)-1H-benzo[d]imidazole-6-carboxylic acid] as the compound, how does the EC50 [2] read?
**A.** 0.39 nM

**Q.** For `O=C(O)c1ccc2nc(Cc3ccc(-c4cccc(OCc5ccc(C6COC6)cc5F)n4)cc3F)n(CC3(CF)CC3)c2c1` [Compound 10, 2-(2-fluoro-4-(6-((2-fluoro-4-(oxetan-3-yl)benzyl)oxy)pyridin-2-yl)benzyl)-1-((1-(fluoromethyl)cyclopropyl)methyl)-1H-benzo[d]imidazole-6-carboxylic acid], which EC50 [2] is on record?
**A.** 0.03 nM
